According to US7423068B2, “Control of parasitic mites of honey bees” (The United States of America as represented by the …, priority 2001, dated 2008):
Where “and” joins values, the source holds several entries; their conditions need not be identical. Identical values can stand only once.

Assays:
[1] = tested on: mites; experiment: Minimum Level Treatment Effectiveness petri dish bioassay; type: in vivo; settings: for # of Dead Mites/Total Mites: 17.5 hours exposure
Procedure: Determination of the minimum amount of 2-heptanone effective in mite mortality in our bioassay was performed according to the following procedure: 3 Kimwipes® were placed on the bottom of petri dishes and slightly moistened with water using a disposable 1 ml pipette. A cut section of Parafilm® M was placed over the moistened Kimwipes® and stretched up and over the outer edge of the petri dish bottom. […] A single Whatman® Filter paper (9.0 cm) was placed on top of the pierced Parafilm® area and pushed down to create space between the filter paper and the petri dish lid. Six to eight mites and two bee larvae were placed on top of the filter paper in each petri dish. A small strip of filter paper was taped to the inside top of each petri dish. Four groups of two petri dishes were labeled according to the type of treatment. The treatments were: 1 μL 2-heptanone; 5 μL 2-heptanone; 10 μL 2-heptanone; and Control (no treatment). All eight dishes were then placed in incubators set to maintain a temperature of 33-34.4° C. Our results were as follows:
In our second bioassay, the same protocol was applied; however we sought to investigate if lower amounts of 2-heptanone could be as effective. In this trial, amounts of 0.5 and 1 μL of 2-heptanone were used. After 17.5 hours exposure to 2-heptanone, our results were as follows: […]

[2] = Release rate of 2-heptanone from acrylic blocks; type: physicochemical; settings: acrylic block, 34° C.
Text: Blocks having the following composition were made:
Polymerization was triggered with 2.9% benzoyl peroxide and 1.1% dimethylparatoluidine. Each block weighed approximately 30 grams (Diam. 60 mm, Height 10 mm). The blocks were molded in an aluminum cup.
However, it was found, because of a packaging problem, that the blocks lost some active ingredient during transportation and had only 30% 2-heptanone. To avoid any further loss of active ingredient, the unused samples were stored at all times in a refrigerator at 4° C. The value of 30% 2-heptanone was kept for further processing of the data. The rate at which 2-heptanone was released from the blocks was measured. The experimental procedure consisted in weighing the acrylic blocks left in their aluminum mold at regular intervals. The blocks were kept in an incubator set at 34° C. (temperature of the center of the brood nest in a honey bee hive). It is noteworthy that the incubator is not air tight and that the incubator glass door had to be opened to retrieve the sample to be weighed. An Isotemp Incubator from Fisher Scientific was used. The incubator has a measured volume of 71 liters. The samples were monitored for 44 days.

[3] = tested on: Varroa mites; experiment: Attractant petri dish bioassay with 20% 2-heptanone gel formulation; type: in vivo, Varroa jacobsoni; settings: 40 μL of 20% 2-heptanone gel
Procedure: We conducted bioassays to deternine if 2-heptanone attracts Varroa mites. In the first bioassay, we exposed free-running adult mites to volatiles from a 20% 2-heptanone in a gel formulation. […] 40 μL of 20% 2-heptanone in a gel formulation was added to a weighing boat located in the center of the petri dish. Control dishes were set up as described above with empty weighing boats in the center. Within 24 hours 27.3% of the mites were found in the gel formulation of 2-heptanone located in the weighing boat in the center of the petri dish. No mites were found in the weighing boat in the Control dish. The bioassay was repeated using the same procedure as described above. In the second replicate, 16.7% of the mites were found in the gel formulation of 2-heptanone located in the weighing boat in the center of the petri dish and again 0% were found in the weighing boats of the Control dishes.

[4] = tested on: Varroa mites; experiment: Varroa trapping device in a Varroa-infested 9-frame colony; type: in vivo, Varroa jacobsoni; settings: trap coated with 20% 2-heptanone gel, between brood frames, after 48 hrs
Text: In a second test to determine if 2-heptanone is an attractant, a Varroa trapping device was placed in a Varroa-infested 9-frame colony for 48 hrs. The device was constructed by placing a 2.54 cm^2 piece of Dewill® Varroa Mite Detector Insert coated with a 20% concentration of 2-heptanone in a gel formulation and covered with a 0.63 cm (0.25 inch) wire mesh. A wire was placed through the top of the trap so that the trap dangled between the frames in the colony. The device was placed between frames containing brood.

[5] = tested on: wax moth (Galleria mellonella); experiment: Control of wax moth in stored frames with drawn comb; type: in vivo; settings: 1, 2 or 3 slow release strips with 60 grams 2-heptanone, after 5 weeks; equipment without 2-heptanone totally infested
Text: We conducted an experiment where we stored five frames with drawn comb in a nucleus colony box without bees present. In three nucleus colony boxes we placed 1, 2 or 3 strips containing 60 grams of 2-heptanone in a slow release formulation. In a fourth nucleus colony box we placed no 2-heptanone. Within 2 weeks after the start of the experiment, the equipment without 2-heptanone had wax moth adults present between the frames. The adults probably were laying eggs. After 5 weeks, the equipment without 2-heptanone was totally infested with wax moth. There still was no wax moth in any equipment containing 2-heptanone.

CCCCCC(C)=O [2-Heptanone]
# of Dead Mites/Total Mites ([1]; 0.5 μL 2-heptanone, per dish): 1/6 and 1/5 and 2/6 and 0/5
# of Dead Mites/Total Mites ([1]; 1 μL 2-heptanone, per dish): 3/6 and 0/5 and 1/4 and 1/5
% Mortality 25.5 hours ([1]; 1 μL 2-heptanone, per dish): 50% and 66%
% Mortality 40.5 hours ([1]; 1 μL 2-heptanone, per dish): 50% and 66%
% Mortality 40.5 hours ([1]; 5 μL 2-heptanone, per dish): 100% and 68%
% Mortality 17.5 hours ([1]; 10 μL 2-heptanone, per dish): 66% and 40%
% Mortality 25.5 hours ([1]; 10 μL 2-heptanone, per dish): 66% and 50%
% Mortality 40.5 hours ([1]; 10 μL 2-heptanone, per dish): 66% and 60%
action on the mites at higher concentrations ([1]; mites inanimate at 1 hour, active again as 2-heptanone evaporated): knockdown action
minimum amount of 2-heptanone that will cause mite mortality ([1]; petri dish): 1 µL
% 2-Heptanone loss (initial conc. 30%) ([2]; Day 0): 0%
Daily release in percentage ([2]; Day 0): 0 percentage
% 2-Heptanone loss (initial conc. 30%) ([2]; Day 1): 29.13%
Daily release in percentage ([2]; Day 1): 29.13 percentage
% 2-Heptanone loss (initial conc. 30%) ([2]; Day 2): 38.76%
Daily release in percentage ([2]; Day 2): 9.63 percentage
% 2-Heptanone loss (initial conc. 30%) ([2]; Day 3): 49.04%
Daily release in percentage ([2]; Day 3): 10.28 percentage
% 2-Heptanone loss (initial conc. 30%) ([2]; Day 4): 55.72%
Daily release in percentage ([2]; Day 4): 6.68 percentage
% 2-Heptanone loss (initial conc. 30%) ([2]; Day 7): 68.85%
Daily release in percentage ([2]; Day 7): 4.38 percentage
% 2-Heptanone loss (initial conc. 30%) ([2]; Day 8): 71.82%
Daily release in percentage ([2]; Day 8): 2.97 percentage
% 2-Heptanone loss (initial conc. 30%) ([2]; Day 9): 74.7%
Daily release in percentage ([2]; Day 9): 2.88 percentage
% 2-Heptanone loss (initial conc. 30%) ([2]; Day 10): 76.09%
Daily release in percentage ([2]; Day 10): 1.39 percentage
% 2-Heptanone loss (initial conc. 30%) ([2]; Day 11): 77.88%
Daily release in percentage ([2]; Day 11): 1.79 percentage
% 2-Heptanone loss (initial conc. 30%) ([2]; Day 14): 82.31%
Daily release in percentage ([2]; Day 14): 1.48 percentage
% 2-Heptanone loss (initial conc. 30%) ([2]; Day 15): 83.43%
Daily release in percentage ([2]; Day 15): 1.12 percentage
% 2-Heptanone loss (initial conc. 30%) ([2]; Day 16): 84.39%
Daily release in percentage ([2]; Day 16): 0.96 percentage
% 2-Heptanone loss (initial conc. 30%) ([2]; Day 18): 86.24%
Daily release in percentage ([2]; Day 18): 0.92 percentage
% 2-Heptanone loss (initial conc. 30%) ([2]; Day 21): 88.43%
Daily release in percentage ([2]; Day 21): 0.73 percentage
% 2-Heptanone loss (initial conc. 30%) ([2]; Day 24): 89.98%
Daily release in percentage ([2]; Day 24): 0.52 percentage
% 2-Heptanone loss (initial conc. 30%) ([2]; Day 30): 92.36%
Daily release in percentage ([2]; Day 30): 0.4 percentage
% 2-Heptanone loss (initial conc. 30%) ([2]; Day 44): 95.21%
Daily release in percentage ([2]; Day 44): 0.2 percentage
% of the mites found in the gel formulation in the weighing boat ([3]; second replicate, Control 0%): 16.7%
% of the mites found in the gel formulation in the weighing boat ([3]; within 24 hours, first bioassay, Control none): 27.3%
Varroa mites found stuck in the gel on the trap [4]: several hundred
wax moth infestation of stored equipment [5]: no wax moth
